PubChem BioAssay AID328 (DTP/NCI, 2004)
Values joined by “and” are separate entries in the source; they are usually repeats but may differ in a detail not shown here. Identical values can stand only once. Toxic doses and inconclusive results are not listed. How the source made its calls: active means survival T/C of 150% or more; inactive means T/C below 125% in these data.

Tested on: BDF1 mice, P388 leukemia ip, median survival T/C
Experiment: NCI In Vivo Anticancer Drug Screen. Data for tumor model P388 Leukemia (intraperitoneal) in B6D2F1 (BDF1) mice
Details: endpoint: median survival time, higher = longer survival
How it was run: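 Each value expresses how treatment altered survival: treated-mouse outcome over vehicle-mouse outcome, both groups bearing the transplanted tumour.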

[1] = dose: 100.0 mg/kg/injection, schedule: Q04DX003 (ip), vehicle: Klucel (hydroxypropylcellulose) (HPC)
[2] = dose: 200.0 mg/kg/injection, schedule: Q04DX003 (ip), vehicle: Klucel (hydroxypropylcellulose) (HPC)
[3] = dose: 400.0 mg/kg/injection, schedule: Q04DX003 (ip), vehicle: Klucel (hydroxypropylcellulose) (HPC)
[4] = dose: 100.0 mg/kg/injection, schedule: Q01DX009 (ip), vehicle: Klucel (hydroxypropylcellulose) (HPC)
[5] = dose: 200.0 mg/kg/injection, schedule: Q01DX009 (ip), vehicle: Klucel (hydroxypropylcellulose) (HPC)

Measured: T/C

CCCCCCCCCC(=O)OCC1OC(=O)C(C)N(C)C(=O)CN(C)C(=O)C2C(=O)CC(C)N2C(=O)C(C(C)C)NC(=O)C1NC(=O)c1c2nc3c(C(=O)NC4C(=O)NC(C(C)C)C(=O)N5C(C)CC(OC(=O)CCCCCCCCC)C5C(=O)N(C)CC(=O)N(C)C(C(C)C)C(=O)OC4C)ccc(C)c3oc-2c(C)c(=O)c1N (centres undefined)
inactive: dose: 0.1 mg/kg/injection, schedule: Q01DX009 (ip), vehicle: saline with Tween-80 105 % of control | dose: 0.2 mg/kg/injection, schedule: Q01DX009 (ip), vehicle: saline with Tween-80 93 % of control | dose: 0.3 mg/kg/injection, schedule: Q04DX003 (ip), vehicle: saline with Tween-80 107 % of control | dose: 0.4 mg/kg/injection, schedule: Q01DX009 (ip), vehicle: saline with Tween-80 89 % of control | dose: 0.6 mg/kg/injection, schedule: Q04DX003 (ip), vehicle: saline with Tween-80 92 % of control | dose: 0.8 mg/kg/injection, schedule: Q01DX001 (ip), vehicle: saline with Tween-80 98 % of control | dose: 0.8 mg/kg/injection, schedule: Q01DX009 (ip), vehicle: saline with Tween-80 96 % of control | dose: 1.6 mg/kg/injection, schedule: Q01DX001 (ip), vehicle: saline with Tween-80 107 % of control | dose: 1.6 mg/kg/injection, schedule: Q01DX009 (ip), vehicle: saline with Tween-80 117 % of control | dose: 2.4 mg/kg/injection, schedule: Q04DX003 (ip), vehicle: saline with Tween-80 96 % of control | dose: 3.2 mg/kg/injection, schedule: Q01DX001 (ip), vehicle: saline with Tween-80 100 % of control | dose: 4.8 mg/kg/injection, schedule: Q04DX003 (ip), vehicle: saline with Tween-80 92 % of control | dose: 6.4 mg/kg/injection, schedule: Q01DX001 (ip), vehicle: saline with Tween-80 100 % of control | dose: 12.8 mg/kg/injection, schedule: Q01DX001 (ip), vehicle: saline with Tween-80 97 % of control

COc1ccc(-c2nc3c(=O)n(C)c(=O)n(C)c3nc2-c2ccc(OC)cc2)cc1
inactive: dose: 100.0 mg/kg/injection, schedule: Q04DX002 (ip), vehicle: saline with Tween-80 104 % of control | dose: 200.0 mg/kg/injection, schedule: Q04DX002 (ip), vehicle: saline with Tween-80 97 % of control | dose: 400.0 mg/kg/injection, schedule: Q04DX002 (ip), vehicle: saline with Tween-80 97 % of control

COc1ccc(C(C(N)=O)N2CCCCC2)cc1 (centres undefined)
inactive: dose: 100.0 mg/kg/injection, schedule: Q01DX009 (ip), vehicle: other 115 % of control | [1] 100 % of control | dose: 200.0 mg/kg/injection, schedule: Q01DX009 (ip), vehicle: other 105 % of control | [2] 90 % of control | dose: 400.0 mg/kg/injection, schedule: Q01DX009 (ip), vehicle: other 100 % of control | [3] 104 % of control

O=c1[nH]c(=O)n(C2CC(O)C(CO)O2)cc1F (centres undefined)
109 % of control and 206 % of control: dose: 100.0 mg/kg/injection, schedule: Q01DX009 (ip), vehicle: saline
active: dose: 15.0 mg/kg/injection, schedule: Q03HX024 (ip), vehicle: saline 172 % of control | dose: 22.0 mg/kg/injection, schedule: Q03HX024 (ip), vehicle: saline 186 % of control | dose: 25.0 mg/kg/injection, schedule: Q01DX009 (ip), vehicle: saline 186 % of control | dose: 33.0 mg/kg/injection, schedule: Q01DX009 (ip), vehicle: saline 173 % of control | dose: 34.0 mg/kg/injection, schedule: Q03HX024 (ip), vehicle: saline 200 % of control | dose: 40.0 mg/kg/injection, schedule: Q01DX009 (ip), vehicle: water 168 % of control and 172 % of control and 200 % of control | dose: 44.0 mg/kg/injection, schedule: Q01DX009 (ip), vehicle: saline 166 % of control | dose: 49.0 mg/kg/injection, schedule: Q01DX009 (ip), vehicle: saline 202 % of control | dose: 50.0 mg/kg/injection, schedule: Q01DX009 (ip), vehicle: saline 218 % of control | dose: 50.0 mg/kg/injection, schedule: Q03HX024 (ip), vehicle: saline 215 % of control | dose: 60.0 mg/kg/injection, schedule: Q01DX009 (ip), vehicle: water 190 % of control (2×) and 195 % of control | dose: 67.0 mg/kg/injection, schedule: Q01DX009 (ip), vehicle: saline 185 % of control | dose: 73.0 mg/kg/injection, schedule: Q01DX009 (ip), vehicle: saline 202 % of control | dose: 74.0 mg/kg/injection, schedule: Q01DX009 (ip), vehicle: saline 169 % of control and 183 % of control and 186 % of control | dose: 80.0 mg/kg/injection, schedule: Q01DX009 (ip), vehicle: water 190 % of control and 200 % of control and 222 % of control | dose: 155.0 mg/kg/injection, schedule: Q04DX004 (ip), vehicle: saline 157 % of control | dose: 233.0 mg/kg/injection, schedule: Q04DX004 (ip), vehicle: saline 170 % of control | dose: 350.0 mg/kg/injection, schedule: Q04DX004 (ip), vehicle: saline 190 % of control | dose: 685.0 mg/kg/injection, schedule: Q01DX001 (ip), vehicle: saline 157 % of control | dose: 1025.0 mg/kg/injection, schedule: Q01DX001 (ip), vehicle: saline 172 % of control
inactive: dose: 5.0 mg/kg/injection, schedule: Q01DX010 (ip), vehicle: saline 113 % of control | dose: 165.0 mg/kg/injection, schedule: Q01DX009 (ip), vehicle: saline 109 % of control | dose: 205.0 mg/kg/injection, schedule: Q01DX001 (ip), vehicle: saline 124 % of control | dose: 525.0 mg/kg/injection, schedule: Q04DX004 (ip), vehicle: saline 110 % of control

CC1(CCBr)NC(=O)NC1=O (centres undefined)
inactive: [4] 110 % of control | [1] 100 % of control | [5] 105 % of control | [2] 115 % of control | dose: 400.0 mg/kg/injection, schedule: Q01DX009 (ip), vehicle: Klucel (hydroxypropylcellulose) (HPC) 105 % of control | [3] 100 % of control

COC(=O)C(N)CSCSC (centres undefined)
inactive: dose: 100.0 mg/kg/injection, schedule: Q04DX003 (ip), vehicle: saline 90 % of control | dose: 200.0 mg/kg/injection, schedule: Q04DX003 (ip), vehicle: saline 100 % of control | dose: 400.0 mg/kg/injection, schedule: Q04DX003 (ip), vehicle: saline 90 % of control

NC(=O)NN=C1CCCCC1
inactive: dose: 17.5 mg/kg/injection, schedule: Q01DX009 (ip), vehicle: Klucel (hydroxypropylcellulose) (HPC) 90 % of control | dose: 26.25 mg/kg/injection, schedule: Q04DX003 (ip), vehicle: Klucel (hydroxypropylcellulose) (HPC) 100 % of control | dose: 35.0 mg/kg/injection, schedule: Q01DX009 (ip), vehicle: Klucel (hydroxypropylcellulose) (HPC) 122 % of control | dose: 52.5 mg/kg/injection, schedule: Q04DX003 (ip), vehicle: Klucel (hydroxypropylcellulose) (HPC) 100 % of control

O=C(Nc1cc(Cl)ccc1C(=O)O)c1cccc(C[n+]2ccccc2)c1
inactive: dose: 50.0 mg/kg/injection, schedule: Q01DX005 (ip), vehicle: saline with Tween-80 111 % of control | dose: 100.0 mg/kg/injection, schedule: Q01DX005 (ip), vehicle: saline with Tween-80 111 % of control

CC1=CC2OC34COC3CC(OC(=O)C(F)(F)F)C4(C)C2(C)CC1 (centres undefined)
inactive: dose: 75.0 mg/kg/injection, schedule: Q04DX003 (ip), vehicle: saline with Tween-80 110 % of control | dose: 300.0 mg/kg/injection, schedule: Q04DX003 (ip), vehicle: saline with Tween-80 117 % of control

O=C1c2ccccc2S(=O)(=O)c2cc(-c3nn[nH]n3)ccc21
inactive: dose: 50.0 mg/kg/injection, schedule: Q01DX009 (ip), vehicle: Klucel (hydroxypropylcellulose) (HPC) 106 % of control | [4] 94 % of control | [5] 104 % of control

CCCCN(CCCC)CCC(=O)c1ccc(OC)c2ccccc12
inactive: dose: 50.0 mg/kg/injection, schedule: Q01DX009 (ip), vehicle: saline with Tween-80 86 % of control

COc1cc(C(=O)O)c2c(c1C)OC(=O)c1c(C)cc(O)c(C=O)c1O2
inactive: dose: 2.0 mg/kg/injection, schedule: Q01DX010 (ip), vehicle: saline 95 % of control | dose: 4.0 mg/kg/injection, schedule: Q01DX009 (ip), vehicle: Klucel (hydroxypropylcellulose) (HPC) 109 % of control | dose: 4.0 mg/kg/injection, schedule: Q01DX010 (ip), vehicle: saline 90 % of control and 122 % of control and 123 % of control | dose: 8.0 mg/kg/injection, schedule: Q01DX010 (ip), vehicle: saline 90 % of control | dose: 10.0 mg/kg/injection, schedule: Q04DX003 (ip), vehicle: saline 104 % of control | dose: 16.0 mg/kg/injection, schedule: Q01DX010 (ip), vehicle: saline 113 % of control and 123 % of control | dose: 20.0 mg/kg/injection, schedule: Q04DX003 (ip), vehicle: saline 115 % of control | dose: 40.0 mg/kg/injection, schedule: Q01DX001 (ip), vehicle: saline 111 % of control | dose: 80.0 mg/kg/injection, schedule: Q01DX001 (ip), vehicle: saline 115 % of control | dose: 80.0 mg/kg/injection, schedule: Q04DX003 (ip), vehicle: saline 104 % of control
